According to US20040013631A1, “Skin care cosmetic compositions containing carboxyalkylates of branched alcohols and/or alkoxylates thereof” (Unilever Home & Personal Care USA, Division of Conopco, priority 2002, published 2004):
Where two headings read alike, the source gives them in different places. Marks after values point to notes of the source that are not given here.

Legend:
[1] = tested on: human sebocytes; experiment: Inhibition of sebocyte lipogenesis (14C-acetate label remaining in sebocytes); type: cell-based; details: for IC50: read-out: IC 50 (concentration which provides a 50% sebum suppression relative to the control)
[2] = Light absorbency (color) at 340-500 nm, Spectramax 340 spectrophotometer; type: physicochemical; details: from absorbency values at 340-500 nm
[3] = 20 hour incubation, 96 well plate
[4] = Homo sapiens, 20 hour incubation, 96 well plate

Molecule: C13 isoalcohol glycerol [Compound 5]
- IC50 [1, 3]: > 100 µM

Molecule: C13 isoalcohol carboxyethylate (TDCE) [Compound 1]
- radioactive label remaining in the sebocytes, % of Control ([1]; 1 µM): 48.7* %
- radioactive label remaining in the sebocytes, % of Control ([1]; 10 µM): 34.6* %
- radioactive label remaining in the sebocytes, % of Control ([1]; 100 µM): 11.9* %
- IC50 [1, 3]: 5 µM
- color compared with TDCM [2]: lighter in color

Molecule: CC(C)CCCC(C)CCCC(C)CCO (centres unmarked) [Compound 6, 3,7,11-trimethyl 1-dodecanol]
- IC50 [1, 4]: > 100 µM

Molecule: C13 isoalcohol propionitrile [Compound 2]
- IC50 [1, 3]: > 100 µM

Molecule: O=S1(=O)OC(c2ccc(O)cc2)(c2ccc(O)cc2)c2ccccc21 [Phenol Red]
- activity at 100 µM ([1]; Homo sapiens, 20 h, read-out: radioactive label remaining in the sebocytes, % of Control): 46.3%

Molecule: Iso-tridecyl carboxymethylate [TDCM]
- radioactive label remaining in the sebocytes, % of Control ([1]; 1 μM test agent, 20 hour incubation, 96 well plate, lower = greater inhibition of lipogenesis): 84.8* %
- radioactive label remaining in the sebocytes, % of Control ([1]; 10 μM test agent, 20 hour incubation, 96 well plate, lower = greater inhibition of lipogenesis): 43.4* %
- radioactive label remaining in the sebocytes, % of Control ([1]; 100 μM test agent, 20 hour incubation, 96 well plate, lower = greater inhibition of lipogenesis): 22.8* %

Molecule: CC(C)CCCC(C)CCCC(C)CCOCCC(=O)O (centres unmarked) [Compound 7, 3,7,11-trimethyl 1-dodecanol carboxyethylate]
- IC50 [1, 4]: 10 µM
- activity as sebum suppressant relative to the branched alcohol from which it is derived ([1]; ratio of IC50 values of Table 3): at least 10 times
